The values that follow come from PMC11546692 (International Journal of Molecular Sciences, 2024).

Data set [1] concerns pancreatic cancer (PC) cells. The data set can be described thus: MTT proliferation of human and murine pancreatic cancer cells (overall statements, combinations). The data set is classed as cell-based. The note with it: MiaPaCa-2, PANC-1, TB33117, KPCWT942.
In a further data set the test system is Skp2. The data set can be described thus: Skp2 immunohistochemical staining of xenografted tumors. The data set is classed as in vivo, Scid mice.
In data set [2] the test system is MiaPaCa-2 human pancreatic cancer cells xenograft. The data set can be described thus: Subcutaneous MiaPaCa-2 xenograft tumor growth in Scid mice. It is filed as in vivo.
In data set [3] the test system is MiaPaCa-2 cells. The data set can be described thus: Cell death by propidium iodide flow cytometry. It is filed as cell-based, human. The note with it: MiaPaCa-2, 0.05 μM, 48 h. The procedure:
(§1) ATO inhibited PC cell growth by stimulation of apoptosis. The effects of PhAs-LHP on cell cycle and cell death were determined by flow cytometry analysis. In MiaPaCa-2 cells, after 48 h treatment, ATO induced about 15% cell death at 0.5 μM while PhAs-LHP (0.05 μM) caused 24% cell death at ten times lower concentrations than ATO (Figure 4A). Likewise, after 24 h treatment, ATO (2 μM) and PhAs-LHP (0.2 μM) induced cell cycle arrest at the G2/M phase in PANC-1 cells (Figure 4B).
Figure 4 PhAs-LHP induced cell death and cell cycle arrest more potently than ATO. MiaPaCa-2 cells were treated with ATO (0.5 μM) or PhAs-LHP (0.05 μM) for 48 h (A). PANC-1 cells were treated with ATO (2 μM) or PhAs-LHP (0.2 μM) for 24 h (B). Both MiaPaCa-2 and PANC-1 cells were then stained with propidium iodide (PI) and subjected to flow cytometry analysis. Numbers indicate the percent of PI-negative cells of a total of 10,000 cells analyzed per condition (A). […]
Cell death and cell cycle were assayed using propidium iodide (PI) and flow cytometry. […] Samples were processed with the FACSymphony A3 flow cytometer (BD Biosciences), and the acquired data were analyzed with the FlowJo software (BD Biosciences, San Jose, CA, USA).
A general note: Flow cytometry measures light scatter and fluorescence of single cells or particles in a stream.

The subject of data set [4] is MiaPaCa-2 cells. Particulars: MiaPaCa-2, 48 h, MTT.
The subject of data set [5] is normal pancreatic epithelial cell line (HPDE). It is filed as cell-based.
A further data set deals with TB33117 cells. Particulars: TB33117, 48 h, MTT.
Data set [6] relates to PANC-1 cells. The data set can be described thus: Cell cycle by propidium iodide flow cytometry. The note with it: PANC-1, 0.2 μM, 24 h. It is filed as cell-based, human. On the procedure:
as §1
Figure 4 PhAs-LHP induced cell death and cell cycle arrest more potently than ATO. MiaPaCa-2 cells were treated with ATO (0.5 μM) or PhAs-LHP (0.05 μM) for 48 h (A). PANC-1 cells were treated with ATO (2 μM) or PhAs-LHP (0.2 μM) for 24 h (B). Both MiaPaCa-2 and PANC-1 cells were then stained with propidium iodide (PI) and subjected to flow cytometry analysis. Numbers indicate the percent of PI-negative cells of a total of 10,000 cells analyzed per condition (A). TEXT PRINTED IN THE PICTURE: (A) ATO: % PI Negative 85.4 (0.5 μM) | (A) PhAs-LHP: % PI Negative 75.9 (0.05 μM) | (B) ATO: %G1 28.9 (2 μM); %S 16.7 (2 μM); %G2 48.9 (2 μM) | (B) PhAs-LHP: %G1 39.3 (0.2 μM); %S 19.8 (0.2 μM); %G2 38.6 (0.2 μM)
Cell death and cell cycle were assayed using propidium iodide (PI) and flow cytometry. Cells were treated with ATO or PhAs-LHP with the concentrations indicated in the text for 48 h for measuring cell death or 24 h for determining cell cycle arrest. All floating and adhering cells were then trypsinized and washed two times with cold phosphate-buffered saline (PBS). For cell death assays, cells were harvested and resuspended in PBS containing 1 μg/mL PI. For cell cycle analysis, cells were harvested and resuspended in PBS containing 0.1% Triton X-100, 50 μg/mL PI, and 10 μg/mL RNaseA (Thermo Scientific, Melbourne, Australia) and then incubated at 37 °C for 15 min. Samples were processed with the FACSymphony A3 flow cytometer (BD Biosciences), and the acquired data were analyzed with the FlowJo software (BD Biosciences, San Jose, CA, USA).

The conditions of data set [7]: mouse, in vivo.
For data set [8] the following is noted: in vivo.
For data set [9], the system named is PANC-1 cells. Particulars: PANC-1, 48 h, MTT.
Where [10] appears, read: read-out: IC50 inhibition of PC cell proliferation.

`Nc1ccn([C@@H]2O[C@H](CO)[C@@H](O)C2(F)F)c(=O)n1` [Gem, gemcitabine, reference compound]: the “effect of pre-treatment on inhibition of PC cell growth by ATO” value in data set [1] (24 h pre-incubation with Gem, then 48 h ATO) is “enhanced the inhibitory effects of ATO”. Moreover, in the data set on Skp2 (50 mg/kg i.p., vs non-treatment control, IHC), the “levels of Skp2 in tumors” value is “reduced”. Besides, the “PC growth (tumor volume, tumor weight)” value in data set [2] (50 mg/kg i.p. every 4 days, alone, vs control) was “significantly decreased PC growth”.
As for `Cc1nc(Nc2[nH]nc3c2CN(C(=O)N[C@H](CN(C)C)c2ccccc2)C3(C)C)c2sccc2n1` [PF-3758309], the “effect of pre-treatment on inhibition of PC cell growth by ATO” value in [1] (24 h pre-incubation with PF-3758309, then 48 h ATO) is recorded as “enhanced the inhibitory effects of ATO”.
On to `CC(=O)N[C@H]1CS[As](c2ccccc2)SC[C@@H](C(N)=O)NC(=O)[C@H](CCCNC(=N)N)NC(=O)[C@H](CCCNC(=N)N)NC(=O)[C@H](CC(C)C)NC(=O)[C@H](CCCNC(=N)N)NC(=O)[C@H](Cc2c[nH]cn2)NC(=O)[C@H](Cc2ccc(O)cc2)NC(=O)[C@H](C)NC1=O` (some centres unmarked) [PhAs-LHP], for which the cell death in the data set with MiaPaCa-2 cells [3] is listed as 24%. In addition, the “% PI Negative” value with MiaPaCa-2 cells [3] (of 10,000 cells) was 75.9%. In addition, the IC50 in the data set with MiaPaCa-2 cells [4] (setting [10]) stood at 120 ± 100 nM. Further, the “reduction of proliferation of HPDE” value in data set [5] is recorded as 10%. Moreover, the IC50 with TB33117 cells (setting [10]) worked out at 200 ± 50 nM. Further, in the data set on PANC-1 cells [6], the “%G1” value came to 39.3%, the “%G2” value was 38.6% and the “%S” value is 19.8%. For the same compound, the “arsenic (As) in brain, heart, liver and kidney” value in [7] was “not detected”. Besides, in data set [8], the “toxicity (mouse body weight)” value is reported as “No toxicity was observed”. For the same compound, the “levels of Skp2 in tumors, combination with gemcitabine” value in the data set with Skp2 (mouse, in vivo) was “did not further reduce the expression of Skp2”. Besides, the “levels of Skp2 in tumors” value in the data set with Skp2 (mouse, in vivo, ip) is reported as “reduced”. For the same compound, in data set [2] (mouse, in vivo), the “further reduction in tumor volumes and weight on top of Gem” value is “further decreased tumor volumes”; the “relative tumor growth (Day 7 volume = 100%)” value was “significantly slower than of Gem plus PAO”. For the same compound, in data set [2] (mouse, in vivo, ip), the “pancreatic tumor growth (tumor volume, tumor weight)” value is listed as “significantly suppressed pancreatic tumor growth”. For the same compound, the IC50 in the data set on PANC-1 cells [9] (setting [10]) came out at 210 ± 30 nM.
Consider CAYHRLRRC [LHP, reference compound], for which the “effect on cell proliferation” value in the data set on MiaPaCa-2 cells [4], in the data set with TB33117 cells and with PANC-1 cells [9] was “did not affect the proliferation” each time.
